The subject of this test is Plasmodium berghei. Put plainly: Luciferase/luciferin-expressing antifolate-resistant parasites were used to infect a culture of HepG2 cells that were pre-incubated with compounds. Infected hepatocytes emit light due to the luciferase reaction. Assay results are presented as the percent inhibition of light emission compared to control. […]. The note with it: sporozoite; for IC90: read-out: LUCIFERASE INFECTION ASSAY - IC90. The test is classed as functional.

By IC50 is commonly meant the concentration that inhibits the measured activity by half. The term IC90 denotes the concentration at which the effect reaches the 90% level. For the compound `Cc1cc(NNC(=O)Nc2cccc(Cl)c2)nc2c1c(C)nn2C`, the IC90 is greater than 9.57 µM. The IC50 (HEPG2TOX_HILL_SLOPE 1.19, HEPG2TOX_R_SQUARED 0.796, PBLUC_HILL_SLOPE 1.82, PBLUC_R_SQUARED 0.0269, read-out: LUCIFERASE INFECTION ASSAY - IC50) was found to be 5.86 µM.

Take `CN(C)c1ccc(/C=C/c2ccc3ccccc3[n+]2C)cc1`: the IC90 came out at 2.35 µM. The IC50 (HEPG2TOX_HILL_SLOPE 1.22, HEPG2TOX_R_SQUARED 0.944, PBLUC_HILL_SLOPE 2.39, PBLUC_R_SQUARED 0.798, read-out: LUCIFERASE INFECTION ASSAY - IC50) turned out to be 0.935 µM.

On to `CN(CCO)c1ccc(C(=O)c2ccc(N(C)CCO)cc2)cc1`, for which the IC90 came out at 9.22 µM. For the same compound, for the setting “HEPG2TOX_HILL_SLOPE 1.17, HEPG2TOX_R_SQUARED 0.868, PBLUC_HILL_SLOPE 1.55, PBLUC_R_SQUARED 0.285, read-out: LUCIFERASE INFECTION ASSAY - IC50”, the IC50 stood at 2.24 µM.

In the case of `c1cncc(-c2ccc3ncc(-c4cccnc4)n3n2)c1`, the 90% effect concentration (IC90) is 2.92 µM. Further, the IC50 (HEPG2TOX_HILL_SLOPE 1.17, HEPG2TOX_R_SQUARED 0.949, PBLUC_HILL_SLOPE 1.66, PBLUC_R_SQUARED 0.633, read-out: LUCIFERASE INFECTION ASSAY - IC50) was found to be 0.778 µM.

Turning to `CNC(=O)c1cccc(-c2ccc3ncc(-c4ccc(NC(C)=O)cc4)n3n2)c1`, the IC90 came to 2.63 µM. Besides, the 50% inhibitory concentration (IC50) (HEPG2TOX_HILL_SLOPE 1.21, HEPG2TOX_R_SQUARED 0.751, PBLUC_HILL_SLOPE 4.52, PBLUC_R_SQUARED 0.725, read-out: LUCIFERASE INFECTION ASSAY - IC50) was found to be 1.62 µM.

Turning to `CC(Nc1ncnc2ccsc12)c1nc2ccccc2n1C(F)F` (stereo not drawn), the IC90 was found to be 7.92 µM. Besides, the concentration for half-maximal inhibition (IC50) (HEPG2TOX_HILL_SLOPE 1.22, HEPG2TOX_R_SQUARED 0.959, PBLUC_HILL_SLOPE 2.24, PBLUC_R_SQUARED 0.732, read-out: LUCIFERASE INFECTION ASSAY - IC50) stood at 2.97 µM.

Consider `CN(C)c1ccc(CNc2ncnc3ccccc23)cc1`, for which the IC90 was greater than 10 µM. Further, the IC50 (HEPG2TOX_HILL_SLOPE 1.21, HEPG2TOX_R_SQUARED 0.974, PBLUC_HILL_SLOPE 1.4, PBLUC_R_SQUARED 0.594, read-out: LUCIFERASE INFECTION ASSAY - IC50) was 4.35 µM.

For `CC(C)NC(=O)c1c(NC(=O)c2cccc(Cl)c2)nc2ccccn12`, the IC90 came to 2.22 µM. Besides, the concentration for half-maximal inhibition (IC50) (HEPG2TOX_HILL_SLOPE 1.2, HEPG2TOX_R_SQUARED 0.976, PBLUC_HILL_SLOPE 4.43, PBLUC_R_SQUARED 0.437, read-out: LUCIFERASE INFECTION ASSAY - IC50) was 1.35 µM.

Consider `COC(=O)c1c(C)[nH]c(C(=O)C(C)OC(=O)c2ccccc2NS(=O)(=O)c2ccc(Br)s2)c1C` (stereo not drawn), for which the IC90 was greater than 10 µM. In addition, where the note is “HEPG2TOX_HILL_SLOPE 1.22, HEPG2TOX_R_SQUARED 0.375, PBLUC_HILL_SLOPE 2.55, PBLUC_R_SQUARED 0.409, read-out: LUCIFERASE INFECTION ASSAY - IC50”, the IC50 came to 7.98 µM.

Consider `COc1ccc(/C=C/C#N)c(Cl)c1OC`, for which the IC90 was greater than 14.8 µM. Moreover, the IC50 (HEPG2TOX_HILL_SLOPE 1.17, HEPG2TOX_R_SQUARED 0.985, PBLUC_HILL_SLOPE 2.95, PBLUC_R_SQUARED 0.12, read-out: LUCIFERASE INFECTION ASSAY - IC50) was 11.3 µM.

For the compound `CC(Nc1ncnc2scc(-c3ccccc3)c12)c1ccc(S(C)(=O)=O)cc1` (stereo not drawn), the IC90 was found to be 7.11 µM. The IC50 (HEPG2TOX_HILL_SLOPE 1.17, HEPG2TOX_R_SQUARED 0.977, PBLUC_HILL_SLOPE 2.44, PBLUC_R_SQUARED 0.865, read-out: LUCIFERASE INFECTION ASSAY - IC50) was 2.89 µM.

Consider `CCOc1ccc(CN(C)c2ncnc3sc(C)c(C)c23)cc1OC`, for which the IC90 came out at 3.65 µM. Moreover, the IC50 (HEPG2TOX_HILL_SLOPE 1.19, HEPG2TOX_R_SQUARED 0.971, PBLUC_HILL_SLOPE 15.4, PBLUC_R_SQUARED 0.0404, read-out: LUCIFERASE INFECTION ASSAY - IC50) is 3.16 µM.

Consider `Cn1ccc2cc(-c3cn4c(-c5cccc(O)c5)cnc4cn3)ccc21`, for which the IC90 turned out to be 3.11 µM. Also, the concentration for half-maximal inhibition (IC50) (HEPG2TOX_HILL_SLOPE 1.21, HEPG2TOX_R_SQUARED 0.948, PBLUC_HILL_SLOPE 1.63, PBLUC_R_SQUARED 0.761, read-out: LUCIFERASE INFECTION ASSAY - IC50) came out at 0.805 µM.

`CCCC1(CCC)NC(=O)N(CC(=O)/N=c2\sc3ccccc3n2C)C1=O`: the concentration for an effect of 90% (IC90) was greater than 10 µM. The IC50 (HEPG2TOX_HILL_SLOPE 1.17, HEPG2TOX_R_SQUARED 0.854, PBLUC_HILL_SLOPE 1.78, PBLUC_R_SQUARED 0.281, read-out: LUCIFERASE INFECTION ASSAY - IC50) came out at 4.54 µM.

For `CSCC[C@H](NC(=O)CCN(c1cc(C)cc(C)c1)S(=O)(=O)c1ccc(Cl)cc1)c1nc2ccccc2[nH]1`, the IC90 was greater than 10 µM. In addition, the IC50 (HEPG2TOX_HILL_SLOPE 1.18, HEPG2TOX_R_SQUARED 0.616, PBLUC_HILL_SLOPE 8.87, PBLUC_R_SQUARED 0.619, read-out: LUCIFERASE INFECTION ASSAY - IC50) turned out to be 8.36 µM.

Take `Cc1cc(C)n(-c2ccc(NC(=O)c3ccc(CN4CCCCC4)cc3)cn2)n1`: the IC90 was greater than 10 µM. The IC50 (HEPG2TOX_HILL_SLOPE 1.19, HEPG2TOX_R_SQUARED 0.854, PBLUC_HILL_SLOPE 17.4, PBLUC_R_SQUARED 0.154, read-out: LUCIFERASE INFECTION ASSAY - IC50) turned out to be 9.79 µM.

On to `COc1ccc(-c2cnc3cnc(-c4ccc5c(ccn5C)c4)cn23)cn1`, for which the IC90 is 1.22 µM. Besides, the IC50 (HEPG2TOX_HILL_SLOPE 1.17, HEPG2TOX_R_SQUARED 0.992, PBLUC_HILL_SLOPE 12.5, PBLUC_R_SQUARED 0.775, read-out: LUCIFERASE INFECTION ASSAY - IC50) was 1.02 µM.

With `CCN(CCNc1ncnc2sc3c(c12)CCC3)c1cccc(C)c1`, the IC90 stood at 1.44 µM. Besides, the IC50 (HEPG2TOX_HILL_SLOPE 1.22, HEPG2TOX_R_SQUARED 0.961, PBLUC_HILL_SLOPE 11.3, PBLUC_R_SQUARED 0.508, read-out: LUCIFERASE INFECTION ASSAY - IC50) is 1.18 µM.

As for `COc1ccc(/C=C/C(=O)c2cc(Cl)c(OC)cc2OC)cc1O`, the IC90 was 1.26 µM. Moreover, the 50% inhibitory concentration (IC50) (HEPG2TOX_HILL_SLOPE 1.17, HEPG2TOX_R_SQUARED 0.559, PBLUC_HILL_SLOPE 18.3, PBLUC_R_SQUARED 0.538, read-out: LUCIFERASE INFECTION ASSAY - IC50) worked out at 1.12 µM.

With `Cn1ccc2cc(-c3cnc4cnc(-c5ccccc5)cn34)ccc21`, the IC90 came out at 0.242 µM. Moreover, the IC50 (HEPG2TOX_HILL_SLOPE 1.21, HEPG2TOX_R_SQUARED 0.923, PBLUC_HILL_SLOPE 1.33, PBLUC_R_SQUARED 0.803, read-out: LUCIFERASE INFECTION ASSAY - IC50) worked out at 0.0465 µM.

`CC(=O)c1c(C)[nH]c(C(=O)OCC(=O)NC2CCCc3ccccc32)c1C` (stereo not drawn): the IC90 was greater than 10 µM. The IC50 (HEPG2TOX_HILL_SLOPE 1.17, HEPG2TOX_R_SQUARED 0.444, read-out: LUCIFERASE INFECTION ASSAY - IC50) is greater than 10 µM.

In the case of `CSc1sc(C(=O)N/N=C/c2ccc(Cl)cc2)cc1S(=O)(=O)C(C)C`, the concentration for an effect of 90% (IC90) stood at 5.75 µM. In addition, the IC50 (HEPG2TOX_HILL_SLOPE 1.17, HEPG2TOX_R_SQUARED 0.979, PBLUC_HILL_SLOPE 3, PBLUC_R_SQUARED 0.696, read-out: LUCIFERASE INFECTION ASSAY - IC50) came out at 2.77 µM.

Turning to `Cc1nc2c3ccccc3nc(SCC(=O)Nc3ccccc3)n2n1`, the IC90 is 1.43 µM. The IC50 (HEPG2TOX_HILL_SLOPE 1.21, HEPG2TOX_R_SQUARED 0.956, PBLUC_HILL_SLOPE 1.03, PBLUC_R_SQUARED 0.933, read-out: LUCIFERASE INFECTION ASSAY - IC50) was 0.169 µM.

Take `Cc1cc(C(=O)Cn2cnc3ccccc3c2=O)c(C)n1-c1ccccc1`: the IC90 is greater than 10 µM. Further, the 50% inhibitory concentration (IC50) (HEPG2TOX_HILL_SLOPE 1.21, HEPG2TOX_R_SQUARED 0.806, PBLUC_HILL_SLOPE 1.3, PBLUC_R_SQUARED 0.604, read-out: LUCIFERASE INFECTION ASSAY - IC50) was found to be 2.96 µM.

Take `Cn1cc(-c2cn3c(-c4ccc5c(ccn5C)c4)cnc3cn2)cn1`: the IC90 was 1.47 µM. Further, the IC50 (HEPG2TOX_HILL_SLOPE 1.22, HEPG2TOX_R_SQUARED 0.939, PBLUC_HILL_SLOPE 1.34, PBLUC_R_SQUARED 0.885, read-out: LUCIFERASE INFECTION ASSAY - IC50) turned out to be 0.287 µM.

For the compound `CN1/C(=C\Sc2ccccc2[N+](=O)[O-])C(C)(C)c2ccccc21`, the IC90 was greater than 10 µM. In addition, for the setting “HEPG2TOX_HILL_SLOPE 1.18, HEPG2TOX_R_SQUARED 0.48, PBLUC_HILL_SLOPE 2.15, PBLUC_R_SQUARED 0.378, read-out: LUCIFERASE INFECTION ASSAY - IC50”, the IC50 was determined as 8.07 µM.

For `O=C(c1ccco1)N1CCN(c2ncnc3c2[nH]c2ccc(F)cc23)CC1`, the IC90 is greater than 9.03 µM. In addition, the 50% inhibitory concentration (IC50) (HEPG2TOX_HILL_SLOPE 1.18, HEPG2TOX_R_SQUARED 0.668, PBLUC_HILL_SLOPE 1.45, PBLUC_R_SQUARED 0.295, read-out: LUCIFERASE INFECTION ASSAY - IC50) was greater than 9.03 µM.

On to `CN(C)C(=O)C1CCCN1c1ccc(C(=O)c2ccccc2)cc1[N+](=O)[O-]` (stereo not drawn), for which the concentration for an effect of 90% (IC90) was greater than 10 µM. Where the note is “HEPG2TOX_HILL_SLOPE 1.22, HEPG2TOX_R_SQUARED 0.897, PBLUC_HILL_SLOPE 2.78, PBLUC_R_SQUARED 0.507, read-out: LUCIFERASE INFECTION ASSAY - IC50”, the concentration for half-maximal inhibition (IC50) amounted to 6.2 µM.

`Cc1ccc(O)c(C(=O)c2c[nH]c(-c3nc4ccccc4[nH]3)c2)c1`: the IC90 is greater than 10 µM. The IC50 (HEPG2TOX_HILL_SLOPE 1.19, HEPG2TOX_R_SQUARED 0.817, PBLUC_HILL_SLOPE 1.99, PBLUC_R_SQUARED 0.294, read-out: LUCIFERASE INFECTION ASSAY - IC50) worked out at 3.74 µM.

These data come from ChEMBL document CHEMBL4483862, “Open-source discovery of chemical leads for next-generation chemoprotective antimalarials” (2018).
